{
  "source": "patent USRE47245E1",
  "about": "“Pro-angiogenic peptides and uses thereof” (Susavion Biosciences, Inc., priority 2006, dated 2019)",
  "key": {"[1]": {"test_system": "peripheral blood mononuclear cells (PBMCs)", "test": "Regulation of cytokine release: cytokine antibody array on medium of PBMC cultures", "format": "cell-based, human", "experimental": "To determine whether the peptides regulate induction or inhibition of release of cytokines, cultured peripheral blood mononuclear cells (PBMCs) were treated with one peptide embodiment of the invention and, after 4 hour incubation, the medium was collected and assayed for changes in the amounts of 40 different cytokines. The peptide construct containing four copies of WNSTL (SEQ ID NO:1), illustrated in FIG. 2A, was added at a concentration of 100 nM in each of the assays. The PBMC cultures were established with cells from Cellular Technology, Ltd. (Shaker Heights, Ohio). Approximately 3 million cells of frozen human PBMCs were thawed at 37° C. and transferred to a 50 mL conical tube where 8 mL of wash medium were added slowly. Then an additional 8 mL were added and swirled to mix. The cells were then centrifuged at 330 g for 10 min, the supernatant was removed and the pellet was resuspended in 10 mL wash medium and centrifuged as above. The washed cells were then resuspended in RPMI 1640 medium containing 10% FBS to about 6 million cells per mL and 100 μL of the suspension were added into each well of a 96-well microtiter plate and incubated overnight at 37° C. in humidified 5% CO2. After 24 hr, the medium was replaced with 200 μL fresh RPMI 1640 medium containing 10% FBS and incubated at 37° C. in humidified 5% CO2 for 2 days. For the data shown in TABLE 1, an aliquot of the peptide construct was added to samples in duplicate at a final concentration of 5 nM or 100 nM and incubated at 37° C. in humidified 5% CO2 for 4 hr. For other experiments (data not included), the incubation was continued for 24 hr. The medium was then removed and stored at […]. The samples were analyzed for production of cytokines. One set of control cells was not treated with an experimental agent. A second set of control cells was treated with LPS, the agent commonly used to induce production of a variety of inflammatory cytokines.\nAssays of cytokine levels in samples of culture media were performed using methods developed by RayBiotech, Inc. (Norcross, Ga.). In this technology, membrane arrays of antibodies against cytokines were incubated with samples of media. After washing, the array was incubated with a cocktail of all antibodies tagged with biotin. The membrane was then washed free of unbound antibodies and incubated with streptavidin labeled with a fluorescent dye. After a final wash, the membrane arrays were read in a fluorescence detector and the intensities of the spots quantitated to obtain relative values.\nOne set of control samples was not treated with peptide and a second set of control samples was treated with lipopolysaccharide (LPS) in the absence of the peptide construct. The structure of the construct is illustrated in FIG. 2A. […] The decrease in IL-8 concentration in the peptide-treated sample, as compared with the amount of IL-8 in the sample treated with the proto-typical inflammatory agent LPS, is particularly notable. […] The increase in the proangiogenic PDGF-BB and the decrease in the inflammatory IL-8, without concomitant stimulation of inflammation, are of particular importance with respect to wound healing. […]"}, "[2]": {"test_system": "786-0 human renal cell adenocarcinoma cell line", "test": "Pro-angiogenic activity: growth of xenograft tumor in nude mouse", "format": "in vivo, nude mouse (nu/nu)", "details": "0.05 nmole/gm subcutaneously on alternate days; tumor weight estimated from volume", "experimental": "Tumors require vascularization to obtain nutrients to support growth. Therefore, stimulation of growth of a tumor in response to administration of a construct of this invention is an indication of angiogenesis. For this example, a xenograph model system with the nude mouse (nu/nu) was used to determine the effect of peptide on growth of 786-0 human renal cell adenocarcinoma cell line injected into the flank of a mouse so as to induce a tumor. After the tumor was established, peptide was injected subcutaneously on alternate days. The weight of the tumor was estimated by calculation of the volume.\nFIG. 4 illustrates data resulting from assays for pro-angiogenic activity for one embodiment of the invention. […] The peptide was also assayed in combination with Sorafenib, an anti-angiogenic drug."}, "[3]": {"test_system": "macrophages in PBMC cultures", "test": "Stimulation of phagocytosis: macrophages engulfing microspheres opsonized with anti-HIV antibodies", "format": "cell-based, human", "details": "PBMC cultures pretreated; control cultures 0 to 3 beads", "experimental": "The activity of the peptides to stimulate phagocytosis was assessed by the ability of macrophages to engulf microspheres opsonized with anti-HIV antibodies. A biotin-tagged peptide epitope of a surface protein of HIV-1 was bound to streptavidin on the surface of the beads. An antibody preparation that was raised against this epitope was then bound to the HIV peptide. The beads were then washed and presented to PBMC cultures pretreated with peptides. Macrophages in cultures not treated with peptides had little, if any, phagocytic activity. In multiple control cultures, the number of beads within a macrophage-like cell ranged from 0 to 3. In the cultures treated with peptide constructs containing four copies of the peptide sequences WNSTL (SEQ ID NO:1), NQHTPR (SEQ ID NO:2), or VQATQS (SEQ ID NO:8), an average of 10 beads were counted in each phagocytic cell, with no substantial difference between peptide constructs."}, "[4]": {"details": "PBMCs in serum, 4 hr, construct 100 nM"}},
  "note": "Where no end group is shown, it is not given here.",
  "data": [
    {"substance": "WNSTL: branched construct: four copies of core sequence WNSTL, each via GGGS linker on tri-lysine framework, C-terminal amide (also: four copies, each via GGGS linker on tri-lysine framework, C-terminal amide of construct)", "values": [
      {"measurement": "decrease in concentration of several cytokines as compared to untreated control samples", "setting": "[1]; 4 hr", "value": "more than a two-fold decrease"},
      {"measurement": "Relative concentration of Eotaxin-2", "setting": "[1]; [4]", "value": 109},
      {"measurement": "Relative concentration of GCSF", "setting": "[1]; [4]", "value": 50},
      {"measurement": "Relative concentration of ICAM-1", "setting": "[1]; [4]", "value": 44},
      {"measurement": "Relative concentration of IFN-γ", "setting": "[1]; [4]", "value": 103},
      {"measurement": "Relative concentration of IL-1β", "setting": "[1]; [4]", "value": 120},
      {"measurement": "Relative concentration of IL-4", "setting": "[1]; [4]", "value": 97},
      {"measurement": "Relative concentration of IL-6sR", "setting": "[1]; [4]", "value": 32},
      {"measurement": "Relative concentration of IL-7", "setting": "[1]; [4]", "value": 93},
      {"measurement": "Relative concentration of IL-8", "setting": "[1]; [4]", "value": 144},
      {"measurement": "Relative concentration of IL-10", "setting": "[1]; [4]", "value": 43},
      {"measurement": "Relative concentration of IL-11", "setting": "[1]; [4]", "value": 49},
      {"measurement": "Relative concentration of IL-12p40", "setting": "[1]; [4]", "value": 228},
      {"measurement": "Relative concentration of IL-12p70", "setting": "[1]; [4]", "value": 131},
      {"measurement": "Relative concentration of MCP-1", "setting": "[1]; [4]", "value": 968},
      {"measurement": "Relative concentration of PDGF-BB", "setting": "[1]; [4]", "value": 159},
      {"measurement": "Relative concentration of RANTES", "setting": "[1]; [4]", "value": 145},
      {"measurement": "Relative concentration of TIMP-2", "setting": "[1]; [4]", "value": 25},
      {"measurement": "Relative concentration of sTNF RI", "setting": "[1]; [4]", "value": 78},
      {"measurement": "cytokines induced to higher concentrations: PDGF-BB, IL-1β, IL-4, IL-1, IL-12 and RANTES", "setting": "[1]; compared to untreated controls, 4 hr", "value": "more than two-fold higher"},
      {"measurement": "relative IL-6 concentration", "setting": "[1]; in one experiment, untreated control 98", "value": 93},
      {"measurement": "growth of the tumor enhanced over the control, factor", "setting": "[2]", "value": 1.7},
      {"measurement": "average beads counted in each phagocytic cell", "setting": "[3]", "value": 10, "unit": "beads"}
    ]}
  ]
}
